Assay results taken from ChEMBL document CHEMBL3124783, “Study of the structural and dynamic effects in the FimH adhesin upon α-d-heptyl mannose binding” (J Med Chem, 2014).
Active and inactive are the calls of the source. No cut-off for these calls is given here.

Legend:
Escherichia coli J96 = assay: Selectivity ratio of Kd for Escherichia coli J96 FimH lectin domain Y48A mutant to Kd for Escherichia coli J96 wild type FimH lectin domain
[1] = molecular target: Type 1 fimbrin D-mannose specific adhesin (Escherichia coli K-12) (UniProt P08191); assay: Binding affinity to Escherichia coli J96 FimH lectin domain expressed in Escherichia coli C43 (DE3) by SAXS analysis
Sequence of Type 1 fimbrin D-mannose specific adhesin (Escherichia coli K-12) (P08191 whole entry, the tested form may be a part): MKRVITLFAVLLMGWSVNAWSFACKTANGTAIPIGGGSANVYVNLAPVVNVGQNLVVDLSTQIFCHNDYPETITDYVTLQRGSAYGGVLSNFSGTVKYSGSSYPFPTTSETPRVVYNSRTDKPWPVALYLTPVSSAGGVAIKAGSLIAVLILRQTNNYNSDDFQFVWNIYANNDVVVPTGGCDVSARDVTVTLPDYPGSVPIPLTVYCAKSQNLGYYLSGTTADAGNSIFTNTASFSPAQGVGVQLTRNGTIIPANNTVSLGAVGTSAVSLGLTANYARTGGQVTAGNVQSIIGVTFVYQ

[2] = Binding affinity to Escherichia coli FimH lectin domain
[3] = molecular target: Type 1 fimbrin D-mannose specific adhesin (Escherichia coli K-12) (UniProt P08191); assay: Binding affinity to Escherichia coli J96 FimH lectin domain expressed in Escherichia coli C43 (DE3) by NMR analysis
[4] = Binding affinity to Escherichia coli J96 FimH lectin domain Y48A mutant expressed in Escherichia coli C43 (DE3) by direct ITC analysis
[5] = molecular target: Type 1 fimbrin D-mannose specific adhesin (Escherichia coli K-12, UniProt P08191); assay: Binding affinity to Escherichia coli J96 wild type FimH lectin domain expressed in Escherichia coli C43 (DE3) by direct ITC analysis
Sequence of Type 1 fimbrin D-mannose specific adhesin (P08191 whole entry, the tested form may be a part): as above

Selectivity ratio (Escherichia coli J96): 5 | Activity [1]: Active | Activity [3]: Active | Kd [5]: 17.1 nM
SMILES: CCCCCCCO[C@H]1O[C@H](CO)[C@@H](O)[C@H](O)[C@@H]1O
Kd [2]: 7 nM | Kd [4]: 94.3 nM
